Laboratory results from patent publication US20230263822A1, “MODULATION OF FACTOR 11 EXPRESSION” (Ionis Pharmaceuticals, Inc., priority 2008, published 2023).

Columns and labels:
[1] = system: blood coagulation; assay: PT and aPTT, combination with LOVENOX (Example 19); assay type: in vivo, BALB/c mice
Method: PT and aPTT were measured using PPP from mice treated with ISIS 404071 in combination with LOVENOX. In the first cohort, ISIS 404071 was administered subcutaneously to BALB/c mice at a dosage of 25 mg/kg twice a week for 3 weeks. Plasma was collected from these mice 5 days after receiving the last dose of ISIS 404071. In the second cohort, LOVENOX was administered subcutaneously to BALB/c mice at a dosage of 20 mg/kg once daily for three days. Plasma was collected from these mice 4 hours after receiving the last dose of LOVENOX. In the third cohort, ISIS 404071 was administered subcutaneously to BALB/c mice at a dosage of 20 mg/kg twice a week for 3 weeks, and 2 days after receiving the last dose of ISIS 404071, LOVENOX was administered subcutaneously at a dosage of 20 mg/kg once daily. Plasma was collected from these mice 4 hours after the last dose of LOVENOX. In a fourth cohort, PBS was administered subcutaneously twice a week for three weeks, as a control. Plasma was collected from these mice 5 days after the last dose.
PT and aPTT values provided in Table 31 are reported as International Normalized Ratio (INR) values. […] Also shown in Table 31, treatment with LOVENOX and treatment with ISIS 404071 combined with LOVENOX increase aPTT.

[2] = system: blood coagulation; assay: PT and aPTT, combination with Apixaban (Example 20); assay type: in vivo, BALB/c mice
Method: PT and aPTT were measured using PPP from mice treated with ISIS 404071 in combination with Apixaban. In the first cohort, ISIS 404071 was administered subcutaneously to BALB/c mice at a dosage of 25 mg/kg twice a week for 3 weeks. Plasma was collected from these mice 5 days after receiving the last dose of ISIS 404071. In the second cohort, Apixaban was administered subcutaneously to BALB/c mice at a dosage of 6 mg/kg twice daily for three days. Plasma was collected from these mice 20 minutes after receiving the last dose of Apixaban. In the third cohort, ISIS 404071 was administered subcutaneously to BALB/c mice at a dosage of 20 mg/kg twice a week for 3 weeks, and Apixaban was administered subcutaneously at a dosage of 6 mg/kg twice daily on the last three days of ISIS 404071 treatment. Plasma was collected from these mice 20 minutes after receiving the last dose of Apixaban. In a fourth cohort, PBS was administered subcutaneously twice a week for three weeks, as a control. Plasma was collected 5 days after the last dose of PBS.
PT and aPTT values provided in Table 32 are reported as International Normalized Ratio (INR) values. […] However, Apixaban and Apixaban combined with ISIS 404071 increased PT. Also shown in Table 32, Apixaban, ISIS 404071, and ISIS 404071 combined with Apixaban increase aPTT.

[3] = system: Factor 11 mRNA; assay: Factor 11 mRNA in liver, FeCl3 induced venous thrombosis model vs Apixaban (Example 14); assay type: in vivo, BALB/c mice; conditions: for % inhibition of Factor 11 mRNA in liver relative to PBS control: FeCl3 VT model
Method: ISIS 404071 and Apixaban were evaluated in the FeCl3 induced VT mouse model. […] Two days after receiving the last dose of ISIS 404071, mice were anesthetized with 150 mg/kg ketamine mixed with 10 mg/kg xylazine administered by intraperitoneal injection. […] Twenty minutes after receiving Apixaban, mice were anesthetized with 150 mg/kg ketamine mixed with 10 mg/kg xylazine administered by intraperitoneal injection. […] Two days after the last dose of PBS, mice in both groups were anesthetized with 150 mg/kg ketamine mixed with 10 mg/kg xylazine administered by intraperitoneal injection. Thrombus formation was induced with FeCl3 in all of the mice except the first control group.
(§1) In mice undergoing FeCl3 treatment, thrombus formation was induced by applying a piece of filter paper (2×4 mm) pre-saturated with 10% FeCl3 solution directly on the vena cava. After 3 minutes of exposure, the filter paper was removed. Thirty minutes after the filter paper application, a fixed length of the vein containing the thrombus was dissected out for platelet analysis. Liver was collected for RNA analysis.
RNA was extracted from liver tissue for real-time PCR analysis of Factor 11. Results are presented as percent inhibition of Factor 11, relative to PBS control.

[4] = system: murine Factor 11 protein; assay: Factor 11 protein, F11 assay based on clotting time (Example 10); assay type: in vivo; conditions: BALB/c mice; for % Inhibition of murine Factor 11 protein: plasma, relative to PBS control
Method: BALB/c mice were injected with 5 mg/kg, 10 mg/kg, 25 mg/kg, or 50 mg/kg of ISIS 404057 or ISIS 404071 twice a week for 3 weeks. A control group of mice was injected with phosphate buffered saline (PBS) twice a week for 3 weeks. Mice were sacrificed 5 days after receiving the last dose. Whole liver was harvested for RNA analysis and plasma was collected for clotting analysis (PT and aPTT) and protein analysis.
Factor 11 proenzyme from the plasma of mice treated with ISIS 404071, was measured using a F11 assay based on clotting time. Clotting times were determined in duplicate with a ST4 semi-automated coagulation instrument (Diagnostica Stago, NJ). Thirty μl of citrated sample plasma diluted 1/20 in HEPES-NaCl buffer with BSA was incubated with 30 μl aPTT reagent (Platelet Factor 3 reagent plus particulate activator) and 30 μl of citrated plasma deficient of Factor 11 (human congential, George King Bio-Medical Inc.) at 37° C. to initiate clotting. Results were interpolated on a standard curve of serially diluted citrated control murine plasma.
Results are presented as percent inhibition of Factor 11, relative to PBS control.

[5] = system: Factor 11 mRNA; assay: Factor 11 mRNA in liver, FeCl3 induced venous thrombosis model vs warfarin (Example 11); assay type: in vivo, BALB/c mice; conditions: for % inhibition of Factor 11 mRNA in liver relative to PBS control: FeCl3 VT model
Method: Two control groups of BALB/c mice were treated with PBS, administered subcutaneously twice a week for 3 weeks. Two days after the last dose of PBS, mice in both groups were anesthetized with 150 mg/kg ketamine mixed with 10 mg/kg xylazine administered by intraperitoneal injection. Thrombus formation was induced with FeCl3 in all groups of mice except the first control group.
as §1
RNA was extracted from liver tissue for real-time PCR analysis of Factor 11.

[6] = ISIS 404071 alone 25 mg/kg s.c. twice a week for 3 weeks, LOVENOX alone 20 mg/kg s.c. once daily for three days, combination 20 mg/kg + 20 mg/kg
[7] = BALB/c mice, ISIS 404071 25 or 20 mg/kg, Apixaban 6 mg/kg twice daily
[8] = ISIS 404071 alone 25 mg/kg s.c. twice a week for 3 weeks, Apixaban alone 6 mg/kg s.c. twice daily for three days, combination 20 mg/kg + 6 mg/kg
[9] = ISIS 404071 1.25 mg/kg subcutaneously twice a week for 3 weeks
[10] = ISIS 404071 5 mg/kg subcutaneously twice a week for 3 weeks
[11] = ISIS 404071 10 mg/kg subcutaneously twice a week for 3 weeks

## ISIS 404071: antisense oligonucleotide targeted to murine Factor 11 mRNA, TGGTAATCCACTTTCAGAGG, target start site 869 (chemistry not given here)
[1]; BALB/c mice, ISIS 404071 25 or 20 mg/kg, LOVENOX 20 mg/kg
  PT: not significantly affected
[1]; [6]
  PT INR: 0.95 INR
  aPTT INR: 1.31 INR
[2]; [7]
  PT: not significantly affected
  aPTT: increase aPTT
[2]; [8]
  PT INR: 0.95 INR
  aPTT INR: 1.31 INR
[3]; FeCl3 induced VT model, ISIS 404071 1.25-40 mg/kg, Apixaban 0.5-5 mg/kg s.c. once
  Factor 11 mRNA in liver vs PBS control: significant dose-dependent reduction of Factor 11 mRNA
[3]; [9]
  % inhibition of Factor 11 mRNA in liver relative to PBS control: 15%
[3]; [10]
  % inhibition of Factor 11 mRNA in liver relative to PBS control: 63%
[3]; [11]
  % inhibition of Factor 11 mRNA in liver relative to PBS control: 76%
[3]; ISIS 404071 25 mg/kg subcutaneously twice a week for 3 weeks
  % inhibition of Factor 11 mRNA in liver relative to PBS control: 91%
[3]; ISIS 404071 50 mg/kg subcutaneously twice a week for 3 weeks
  % inhibition of Factor 11 mRNA in liver relative to PBS control: 95%
[4]; 5-50 mg/kg
  Factor 11 protein: significant dose-dependent reduction of Factor 11 protein
[4]; 5 mg/kg
  % Inhibition of murine Factor 11 protein: 39%
[4]; 10 mg/kg
  % Inhibition of murine Factor 11 protein: 67%
[4]; 25 mg/kg
  % Inhibition of murine Factor 11 protein: 89%
[4]; 50 mg/kg
  % Inhibition of murine Factor 11 protein: 96%
[5]; FeCl3 induced VT model, ISIS 404071 1.25-40 mg/kg s.c. twice a week 3 weeks, warfarin 0.5-5 mg/kg daily 6 days
  Factor 11 mRNA in liver vs PBS control: significant dose-dependent reduction of Factor 11 mRNA
[5]; [9]
  % inhibition of Factor 11 mRNA in liver relative to PBS control: 0%
[5]; [10]
  % inhibition of Factor 11 mRNA in liver relative to PBS control: 62%
[5]; [11]
  % inhibition of Factor 11 mRNA in liver relative to PBS control: 78%
[5]; ISIS 404071 20 mg/kg subcutaneously twice a week for 3 weeks
  % inhibition of Factor 11 mRNA in liver relative to PBS control: 92%
[5]; ISIS 404071 40 mg/kg subcutaneously twice a week for 3 weeks
  % inhibition of Factor 11 mRNA in liver relative to PBS control: 96%
